Our source for the IC50 values is patent US9321776B2, “Isochromene derivatives as phoshoinositide 3-kinases inhibitors” (CHIESI FARMACEUTICI S.p.A., priority 2013, dated 2016).

What all share (experiment): PI3K enzyme inhibitory activity in the cell free assay (ADP-Glo Kinase Assay)
Assay type in all cases: biochemical

The target of assay [1] is T1, PI3Kδ (Homo sapiens, UniProt O00329).
T1 construct: purchased Millipore Ltd (Billerica, Mass.)
T1 sequence (O00329 1-1044): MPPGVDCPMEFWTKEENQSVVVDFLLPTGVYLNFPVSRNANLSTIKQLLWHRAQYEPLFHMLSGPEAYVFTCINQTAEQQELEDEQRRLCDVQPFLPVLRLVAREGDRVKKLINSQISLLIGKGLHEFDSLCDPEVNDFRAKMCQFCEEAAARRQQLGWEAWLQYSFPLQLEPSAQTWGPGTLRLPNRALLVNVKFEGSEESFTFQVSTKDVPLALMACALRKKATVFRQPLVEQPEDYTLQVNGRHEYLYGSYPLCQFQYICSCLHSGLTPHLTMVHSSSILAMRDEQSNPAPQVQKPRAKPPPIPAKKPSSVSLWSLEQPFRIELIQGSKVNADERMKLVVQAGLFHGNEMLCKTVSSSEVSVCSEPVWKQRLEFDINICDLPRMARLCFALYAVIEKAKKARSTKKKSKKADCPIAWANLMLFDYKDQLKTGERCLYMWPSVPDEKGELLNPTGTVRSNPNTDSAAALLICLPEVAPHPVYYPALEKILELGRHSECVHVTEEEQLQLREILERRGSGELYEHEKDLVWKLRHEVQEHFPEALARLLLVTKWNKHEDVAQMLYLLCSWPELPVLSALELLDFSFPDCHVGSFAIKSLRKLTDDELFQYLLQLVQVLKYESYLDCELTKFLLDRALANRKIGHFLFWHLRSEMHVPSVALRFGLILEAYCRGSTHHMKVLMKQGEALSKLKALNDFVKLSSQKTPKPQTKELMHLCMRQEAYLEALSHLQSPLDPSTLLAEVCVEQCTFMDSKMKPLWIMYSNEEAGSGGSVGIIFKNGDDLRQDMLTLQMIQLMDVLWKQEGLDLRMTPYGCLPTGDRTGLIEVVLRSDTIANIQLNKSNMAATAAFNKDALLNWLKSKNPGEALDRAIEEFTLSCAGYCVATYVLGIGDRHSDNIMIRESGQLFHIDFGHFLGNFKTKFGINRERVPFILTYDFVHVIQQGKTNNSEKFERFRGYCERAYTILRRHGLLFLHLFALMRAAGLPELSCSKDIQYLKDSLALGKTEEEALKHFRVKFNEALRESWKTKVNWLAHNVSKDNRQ
The settings on record: human recombinant PI3Kδ, ATP 80 μM; read-out: PI3K delta inhibition.

Assay [2] concerns the target T2, PI3Kβ (Homo sapiens, UniProt P42338).
T2 construct: purchased Millipore Ltd (Billerica, Mass.)
The settings on record: human recombinant PI3Kβ, ATP 100 μM; read-out: PI3K beta inhibition.

Assay [3] has as its target T3, PI3Kα (Homo sapiens, UniProt P42336).
T3 construct: purchased Millipore Ltd (Billerica, Mass.)
The settings on record: human recombinant PI3Kα, ATP 50 μM; read-out: PI3K alpha inhibition.

In assay [4] the target is T4, PI3Kγ (Homo sapiens, UniProt P48736).
T4 construct: purchased Millipore Ltd (Billerica, Mass.)
The note with it: human recombinant PI3Kγ, ATP 30 μM; read-out: PI3K gamma inhibition.

Structures are written as SMILES. Counter-ions that a name gives are not always drawn. A value given as a limit tells only on which side of the number the result lay.

T2 sequence (P42338 whole entry): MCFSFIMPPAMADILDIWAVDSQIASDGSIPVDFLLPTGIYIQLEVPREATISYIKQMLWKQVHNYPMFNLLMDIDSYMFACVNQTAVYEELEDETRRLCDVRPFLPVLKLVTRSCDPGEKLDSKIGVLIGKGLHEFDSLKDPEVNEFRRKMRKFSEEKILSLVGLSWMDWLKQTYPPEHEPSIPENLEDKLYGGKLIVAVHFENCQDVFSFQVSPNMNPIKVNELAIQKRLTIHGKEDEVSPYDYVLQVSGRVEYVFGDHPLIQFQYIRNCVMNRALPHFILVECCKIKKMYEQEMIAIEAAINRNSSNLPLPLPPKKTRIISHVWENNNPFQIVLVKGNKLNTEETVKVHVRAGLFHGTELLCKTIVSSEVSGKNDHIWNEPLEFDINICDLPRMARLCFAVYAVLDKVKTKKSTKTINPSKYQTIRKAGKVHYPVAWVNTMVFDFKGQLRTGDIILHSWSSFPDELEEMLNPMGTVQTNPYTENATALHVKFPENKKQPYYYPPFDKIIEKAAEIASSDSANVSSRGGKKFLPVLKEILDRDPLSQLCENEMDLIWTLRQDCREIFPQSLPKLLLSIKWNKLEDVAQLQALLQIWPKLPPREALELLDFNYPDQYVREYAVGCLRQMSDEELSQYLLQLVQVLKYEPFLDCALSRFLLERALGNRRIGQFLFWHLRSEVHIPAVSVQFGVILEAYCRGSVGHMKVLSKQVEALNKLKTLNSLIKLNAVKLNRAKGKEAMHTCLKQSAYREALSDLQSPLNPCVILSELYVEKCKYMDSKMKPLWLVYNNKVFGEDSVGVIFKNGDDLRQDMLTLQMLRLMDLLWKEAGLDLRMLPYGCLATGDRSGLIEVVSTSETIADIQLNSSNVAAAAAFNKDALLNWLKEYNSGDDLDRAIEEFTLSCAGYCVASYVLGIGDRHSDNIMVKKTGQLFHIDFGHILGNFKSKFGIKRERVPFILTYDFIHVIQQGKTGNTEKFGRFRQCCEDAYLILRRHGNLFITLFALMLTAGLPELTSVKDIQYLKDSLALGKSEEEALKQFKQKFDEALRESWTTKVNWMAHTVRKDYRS
T3 sequence (P42336 whole entry): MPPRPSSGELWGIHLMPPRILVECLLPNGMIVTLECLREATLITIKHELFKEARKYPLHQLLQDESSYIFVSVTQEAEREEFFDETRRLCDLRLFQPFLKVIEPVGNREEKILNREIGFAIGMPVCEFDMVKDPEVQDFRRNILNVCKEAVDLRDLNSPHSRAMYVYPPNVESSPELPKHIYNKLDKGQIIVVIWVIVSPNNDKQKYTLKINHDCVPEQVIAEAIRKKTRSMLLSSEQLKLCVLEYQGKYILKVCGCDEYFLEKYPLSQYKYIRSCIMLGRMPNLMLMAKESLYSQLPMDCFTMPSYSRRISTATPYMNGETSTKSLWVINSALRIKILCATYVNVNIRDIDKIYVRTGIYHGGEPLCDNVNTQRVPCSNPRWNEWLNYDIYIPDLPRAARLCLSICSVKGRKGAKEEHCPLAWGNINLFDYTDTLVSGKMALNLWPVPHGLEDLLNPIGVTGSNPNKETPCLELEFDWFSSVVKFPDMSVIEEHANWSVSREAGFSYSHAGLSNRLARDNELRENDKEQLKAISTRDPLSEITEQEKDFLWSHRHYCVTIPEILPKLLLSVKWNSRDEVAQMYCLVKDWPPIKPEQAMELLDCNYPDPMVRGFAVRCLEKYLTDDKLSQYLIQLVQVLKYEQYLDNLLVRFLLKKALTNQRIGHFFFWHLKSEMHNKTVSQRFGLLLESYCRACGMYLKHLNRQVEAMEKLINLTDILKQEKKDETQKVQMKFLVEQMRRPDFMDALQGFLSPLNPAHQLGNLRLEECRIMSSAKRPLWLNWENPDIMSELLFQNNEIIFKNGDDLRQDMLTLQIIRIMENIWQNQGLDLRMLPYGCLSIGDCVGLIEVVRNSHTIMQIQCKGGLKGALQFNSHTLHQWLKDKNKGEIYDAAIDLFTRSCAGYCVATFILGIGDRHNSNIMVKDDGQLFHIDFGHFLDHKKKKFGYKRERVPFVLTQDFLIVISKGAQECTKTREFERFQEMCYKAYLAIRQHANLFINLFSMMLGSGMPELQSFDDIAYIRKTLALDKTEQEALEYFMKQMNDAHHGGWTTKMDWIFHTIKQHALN
T4 sequence (P48736 whole entry): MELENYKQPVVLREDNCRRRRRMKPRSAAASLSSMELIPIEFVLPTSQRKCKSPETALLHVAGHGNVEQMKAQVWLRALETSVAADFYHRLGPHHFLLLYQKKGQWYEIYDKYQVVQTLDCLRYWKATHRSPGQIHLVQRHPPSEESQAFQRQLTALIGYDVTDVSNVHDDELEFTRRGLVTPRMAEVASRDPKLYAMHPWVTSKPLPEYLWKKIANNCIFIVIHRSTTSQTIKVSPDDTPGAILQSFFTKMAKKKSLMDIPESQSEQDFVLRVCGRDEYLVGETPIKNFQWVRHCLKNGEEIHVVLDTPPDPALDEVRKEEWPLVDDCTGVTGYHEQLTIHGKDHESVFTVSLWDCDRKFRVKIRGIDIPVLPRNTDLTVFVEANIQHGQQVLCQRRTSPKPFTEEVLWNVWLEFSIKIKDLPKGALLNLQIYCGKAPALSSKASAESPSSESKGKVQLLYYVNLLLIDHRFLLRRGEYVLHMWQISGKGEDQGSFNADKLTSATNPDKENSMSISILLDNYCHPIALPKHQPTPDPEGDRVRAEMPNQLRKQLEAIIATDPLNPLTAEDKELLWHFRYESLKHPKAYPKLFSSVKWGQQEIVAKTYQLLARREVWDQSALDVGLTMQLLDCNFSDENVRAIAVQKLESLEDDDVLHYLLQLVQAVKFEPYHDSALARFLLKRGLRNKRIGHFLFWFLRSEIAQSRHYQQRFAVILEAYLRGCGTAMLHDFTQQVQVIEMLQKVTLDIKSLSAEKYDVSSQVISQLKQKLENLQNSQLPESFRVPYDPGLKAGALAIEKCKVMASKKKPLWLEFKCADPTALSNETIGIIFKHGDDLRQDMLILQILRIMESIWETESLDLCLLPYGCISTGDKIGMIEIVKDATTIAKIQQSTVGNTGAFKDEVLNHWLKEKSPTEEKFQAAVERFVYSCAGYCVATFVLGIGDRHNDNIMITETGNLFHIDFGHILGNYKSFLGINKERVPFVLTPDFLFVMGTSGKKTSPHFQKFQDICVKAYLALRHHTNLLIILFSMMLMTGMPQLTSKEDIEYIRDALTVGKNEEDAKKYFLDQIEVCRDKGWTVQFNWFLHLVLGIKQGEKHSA

Take `CC(c1oc(=O)c2ccccc2c1C1=CCN(CC2CC2)CC1)n1nc(-c2cc(O)cc(F)c2)c2c(N)ncnc21` (stereo not drawn) [Example 66, 3-(1-(4-amino-3-(3-fluoro-5-hydroxyphenyl)-1H-pyrazolo[3,4-d]pyrimidin-1-yl)ethyl)-4-(1-(cyclopropylmethyl)-1,2,3,6-tetrahydropyridin-4-yl)-1H-isochromen-1-one hydrochloride]: the IC50 in assay [1] was less than 0.01 µM; in assay [2], 0.01 to 1 µM; in assay [3] it was 0.01 to 1 µM; in assay [4], 0.01 to 1 µM.
Consider `CC(c1oc(=O)c2ccccc2c1-c1ccc(CN2CCCCC2)s1)n1nc(-c2cc(O)cc(F)c2)c2c(N)ncnc21` (stereo not drawn) [Example 68, 3-(1-(4-amino-3-(3-fluoro-5-hydroxyphenyl)-1H-pyrazolo[3,4-d]pyrimidin-1-yl)ethyl)-4-(5-(piperidin-1-ylmethyl)thiophen-2-yl)-1H-isochromen-1-one hydrochloride], for which the IC50 in assay [1] was less than 0.01 µM; in assay [2], 0.01 to 1 µM; in assay [3], 0.01 to 1 µM; in assay [4], 0.01 to 1 µM.
As to `CC(c1oc(=O)c2ccccc2c1-c1cccc(C(=O)NCCN(C)C)c1)n1nc(-c2cc(O)cc(F)c2)c2c(N)ncnc21` (stereo not drawn) [Example 70, 3-(3-(1-(4-amino-3-(3-fluoro-5-hydroxyphenyl)-1H-pyrazolo[3,4-d]pyrimidin-1-yl)ethyl)-1-oxo-1H-isochromen-4-yl)-N-(2-(dimethylamino)ethyl)benzamide hydrochloride], the IC50 in assay [1] was less than 0.01 µM; in assay [2] it was 0.01 to 1 µM; in assay [3], more than 1 µM; in assay [4], 0.01 to 1 µM.
For `CC(=O)N1CC=C(c2c(C(C)n3nc(-c4cncc(O)c4)c4c(N)ncnc43)oc(=O)c3ccccc23)CC1` (stereo not drawn) [Example 71, 4-(1-acetyl-1,2,3,6-tetrahydropyridin-4-yl)-3-(1-(4-amino-3-(5-hydroxypyridin-3-yl)-1H-pyrazolo[3,4-d]pyrimidin-1-yl)ethyl)-1H-isochromen-1-one], the IC50 in assay [1] was less than 0.01 µM; in assay [2] it was 0.01 to 1 µM; in assay [3] it was 0.01 to 1 µM; in assay [4], 0.01 to 1 µM.
As for `CC(=O)N1CC=C(c2c(C(C)n3nc(-c4cc(O)cc(F)c4)c4c(N)ncnc43)oc(=O)c3ccccc23)CC1` (stereo not drawn) [Example 72, 4-(1-acetyl-1,2,3,6-tetrahydropyridin-4-yl)-3-(1-(4-amino-3-(3-fluoro-5-hydroxyphenyl)-1H-pyrazolo[3,4-d]pyrimidin-1-yl)ethyl)-1H-isochromen-1-one], the IC50 was less than 0.01 µM in assay [1], 0.01 to 1 µM in assay [2], 0.01 to 1 µM in assay [3] and 0.01 to 1 µM in assay [4].
As for `CC(c1oc(=O)c2ccccc2c1C1=CC2CCC(C1)N2C)n1nc(-c2cc(O)cc(F)c2)c2c(N)ncnc21` (stereo not drawn) [Example 92, 3-(1-(4-amino-3-(3-fluoro-5-hydroxyphenyl)-1H-pyrazolo[3,4-d]pyrimidin-1-yl)ethyl)-4-(8-methyl-8-azabicyclo[3.2.1]oct-2-en-3-yl)-1H-isochromen-1-one hydrochloride], the IC50 in assay [1] is 0.01 to 1 µM; in assay [2], 0.01 to 1 µM; in assay [3], 0.01 to 1 µM; in assay [4], more than 1 µM.
`Cc1ncc(-c2nn(C(C)c3oc(=O)c4ccccc4c3-c3ccccc3)c3ncnc(N)c23)cc1O` (stereo not drawn) [Example 99, 3-(1-(4-amino-3-(5-hydroxy-6-methylpyridin-3-yl)-1H-pyrazolo[3,4-d]pyrimidin-1-yl)ethyl)-4-phenyl-1H-isochromen-1-one]: the IC50 was less than 0.01 µM in assay [1], 0.01 to 1 µM in assay [2], 0.01 to 1 µM in assay [3] and 0.01 to 1 µM in assay [4].
For the compound `CC(c1oc(=O)c2ccccc2c1C1=CCC(N)CC1)n1nc(-c2cc(O)cc(F)c2)c2c(N)ncnc21` (stereo not drawn) [Example 103, 3-(1-(4-amino-3-(3-fluoro-5-hydroxyphenyl)-1H-pyrazolo[3,4-d]pyrimidin-1-yl)ethyl)-4-(4-aminocyclohex-1-en-1-yl)-1H-isochromen-1-one hydrochloride], the IC50 in assay [1] was less than 0.01 µM; in assay [2], 0.01 to 1 µM; in assay [3], 0.01 to 1 µM; in assay [4] it was more than 1 µM.
As for `CC(NC(=O)c1c(N)nn2cccnc12)c1oc(=O)c2ccccc2c1-c1ccccc1` (stereo not drawn) [Example 110, 2-amino-N-(1-(1-oxo-4-phenyl-1H-isochromen-3-yl)ethyl)pyrazolo[1,5-a]pyrimidine-3-carboxamide], the IC50 in assay [1], in assay [2], in assay [3] and in assay [4] was 0.01 to 1 µM throughout.
Take `CC(Nc1ncnc2[nH]cnc12)c1oc(=O)c2ccccc2c1-c1cncs1` (stereo not drawn) [Example 117, 3-(1-(9H-purin-6-ylamino)ethyl)-4-(thiazol-5-yl)-1H-isochromen-1-one]: the IC50 is less than 0.01 µM in assay [1], more than 1 µM in assay [2], 0.01 to 1 µM in assay [3] and 0.01 to 1 µM in assay [4].
With `CC(c1oc(=O)c2ccccc2c1-c1ccccc1)n1nc2ncnc(N)c2c1-c1cc(O)cc(F)c1` (stereo not drawn) [Example 118, 3-(1-(4-amino-3-(3-fluoro-5-hydroxyphenyl)-2H-pyrazolo[3,4-d]pyrimidin-2-yl)ethyl)-4-phenyl-1H-isochromen-1-one], the IC50 in assay [1] was 0.01 to 1 µM; in assay [2] it was more than 1 µM; in assay [3] it was 0.01 to 1 µM; in assay [4], more than 1 µM.
Turning to `CC(c1oc(=O)c2ccccc2c1-c1cccc(N(C)C)c1)n1nc(-c2cc(O)cc(F)c2)c2c(N)ncnc21` (stereo not drawn) [Example 119, 3-(1-(4-amino-3-(3-fluoro-5-hydroxyphenyl)-1H-pyrazolo[3,4-d]pyrimidin-1-yl)ethyl)-4-(3-(dimethylamino)phenyl)-1H-isochromen-1-one], the IC50 in assay [1] is 0.01 to 1 µM; in assay [2], more than 1 µM; in assay [3], more than 1 µM; in assay [4], 0.01 to 1 µM.
For the compound `CC(c1oc(=O)c2ccccc2c1-c1cncs1)n1nc(-c2cc(O)cc(F)c2)c2c(N)ncnc21` (stereo not drawn) [Example 120, 3-(1-(4-amino-3-(3-fluoro-5-hydroxyphenyl)-1H-pyrazolo[3,4-d]pyrimidin-1-yl)ethyl)-4-(thiazol-5-yl)-1H-isochromen-1-one], the IC50 in assay [1] is less than 0.01 µM; in assay [2], 0.01 to 1 µM; in assay [3], 0.01 to 1 µM; in assay [4] it was 0.01 to 1 µM.
For `CC(c1oc(=O)c2ccccc2c1-c1cnc(N)s1)n1nc(-c2cc(O)cc(F)c2)c2c(N)ncnc21` (stereo not drawn) [Example 121, 3-(1-(4-amino-3-(3-fluoro-5-hydroxyphenyl)-1H-pyrazolo[3,4-d]pyrimidin-1-yl)ethyl)-4-(2-aminothiazol-5-yl)-1H-isochromen-1-one hydrochloride], the IC50 was 0.01 to 1 µM in assay [1], 0.01 to 1 µM in assay [2], more than 1 µM in assay [3] and 0.01 to 1 µM in assay [4].
Consider `CC(Nc1ncnc2[nH]cnc12)c1oc(=O)c2ccccc2c1-c1cn[nH]c1` (stereo not drawn) [Example 122, 3-(1-(9H-purin-6-ylamino)ethyl)-4-(1H-pyrazol-4-yl)-1H-isochromen-1-one], for which the IC50 in assay [1] is less than 0.01 µM; in assay [2], 0.01 to 1 µM; in assay [3], 0.01 to 1 µM; in assay [4], 0.01 to 1 µM.
Turning to `CC(Nc1ncnc(N)c1C#N)c1oc(=O)c2ccccc2c1-c1cn[nH]c1` (stereo not drawn) [Example 123, 4-amino-6-((1-(1-oxo-4-(1H-pyrazol-4-yl)-1H-isochromen-3-yl)ethyl)amino)pyrimidine-5-carbonitrile hydrochloride], the IC50 in assay [1], in assay [2], in assay [3] and in assay [4] was 0.01 to 1 µM throughout.
Take `CC(Nc1ncnc2[nH]cnc12)c1oc(=O)c2ccccc2c1-c1cnc(N)nc1` (stereo not drawn) [Example 124, 3-(1-(9H-purin-6-ylamino)ethyl)-4-(2-aminopyrimidin-5-yl)-1H-isochromen-1-one]: the IC50 in assay [1] was 0.01 to 1 µM; in assay [2], more than 1 µM; in assay [3] it was more than 1 µM; in assay [4], more than 1 µM.
`Nc1ncnc2c1c(-c1cc(O)cc(F)c1)nn2CC1=C(c2ccccc2)c2ccccc2CO1` [Example 128, 3-(4-amino-1-((4-phenyl-1H-isochromen-3-yl)methyl)-1H-pyrazolo[3,4-d]pyrimidin-3-yl)-5-fluorophenol]: the IC50 in assay [1] is 0.01 to 1 µM; in assay [2] it was 0.01 to 1 µM; in assay [3], more than 1 µM; in assay [4], 0.01 to 1 µM.
